From publication PMC5762859, “Distribution analysis of epertinib in brain metastasis of HER2-positive breast cancer by imaging mass spectrometry and prospect for antitumor activity” (Scientific Reports, 2018)
Read-outs that look alike come from different tables or passages of the source.

Assays:
[1] = Quantitative MALDI-IMS of drug in brain metastases of the lung cancer IVM (NCI-H1975-luc); format: in vivo, mice; settings: female, BALB/cAJcl-nu/nu, mouse, tumor (brain metastasis) in brain sections, 4 h after oral 100 mg/kg
Text: All experimental protocols were approved by the Institutional Animal Care and Use Committee of Shionogi & Co., Ltd (Osaka, Japan) and performed in accordance with the Guidelines for Animal Experiments of Shionogi & Co., Ltd, which meet the ethical standards required by the law and the guidelines about the experimental animals in Japan. Nude mice (BALB/cAJcl-nu/nu, CLEA Japan) were used for in vivo studies. All mice were female and six to nine weeks old at the time of implantation. […] Plasma was separated by centrifugation at 3,000 rpm for 15 min at 4 °C and stored at −80 °C until analysis. […]
In the experimental brain metastasis of breast cancer or lung cancer (IVM), a cell suspension containing 2.0 × 10^6 cells (BR2), 1.7 × 10^6 cells (BR3), or 4.0 × 10^5 cells (NCI-H1975-luc) was implanted into the left ventricle of anaesthetized mice (Supplementary Fig. S1). […] For measurement of bioluminescence, 0.2 mL of 10 mg/mL luciferin solution was injected intravenously into anesthetized mice via the tail vein and the photons emitted from tumor measured by IVIS Imaging System 200 (Caliper Life Sciences). […]
Matrix-coated sections were analyzed using a linear ion trap mass spectrometer with a MALDI source (MALDI LTQ XL, Thermo Fisher Scientific Inc.) and a nitrogen laser (337 nm; 60 Hz). […] All compounds were detected in positive-ion mode using the product ion scans of their [M + H]^+ ions. […]

[2] = Plasma concentration by LC-MS/MS in the breast cancer IVM; format: in vivo, mice; settings: female, BALB/cAJcl-nu/nu, mouse, po, 50 mg/kg; for concentration at 4 h: 4 h after single oral 50 mg/kg; for concentration at 8 h: 8 h after single oral 50 mg/kg
Text: (§1) All experimental protocols were approved by the Institutional Animal Care and Use Committee of Shionogi & Co., Ltd (Osaka, Japan) and performed in accordance with the Guidelines for Animal Experiments of Shionogi & Co., Ltd, which meet the ethical standards required by the law and the guidelines about the experimental animals in Japan. Nude mice (BALB/cAJcl-nu/nu, CLEA Japan) were used for in vivo studies. All mice were female and six to nine weeks old at the time of implantation. […] Plasma was separated by centrifugation at 3,000 rpm for 15 min at 4 °C and stored at −80 °C until analysis. After blood sampling, brain tissues were immediately excised, frozen on dry ice, and stored at −80 °C prior to sectioning.
(§2) The mixture was stirred for 10 min and centrifuged at 5,000 rpm for 5 min at 10 °C, and 1 µL of the supernatant was injected into the LC-MS/MS system. An ultra-HPLC system (Nexera LC-20A, Shimadzu Corp., Kyoto, Japan) with a triple quadrupole mass spectrometer (API 5000^TM, AB Sciex, Forester City, CA, USA) was used for LC/MS/MS analysis. The LC-MS/MS system was controlled by Analyst 1.4.2 (AB Sciex) software. Chromatographic separation was performed using a Cadenza CD-C18 HT column (50 × 2.0 mm i.d., 3 µm; Imtakt Corp., Kyoto, Japan).

HER2 [3] = tested on: HER2; set-up: method as in PMID 24837299; settings: between 6 and 24 h after a single administration; cited from earlier work
[4] = Plasma and brain pharmacokinetics after single oral administration in mice implanted intracranially with MDA-MB-361 cells; settings: for concentration at 8 h / Tmax / concentration at 0.5 h / concentration at 1 h / concentration at 2 h / concentration at 4 h / concentration at 24 h / AUC(0-t) / Cmax: female, mouse, po; for AUC0–24 h, brain / Cmax, brain: single oral 20 mg/kg, mice
Text: as §1, §2

EGFR [5] = tested on: EGFR; set-up: method as in PMID 24837299; settings: between 6 and 24 h after a single administration; cited from earlier work
[6] = Plasma concentration in the lung cancer IVM; format: in vivo, mice; settings: female, BALB/cAJcl-nu/nu, mouse, 4 h after oral 100 mg/kg
Text: as §1, §2

[7] = tested on: HER2-positive metastatic breast cancer patients; settings: historical data, combination with trastzumab; cited from earlier work
[8] = tested on: albumin and α-1 acid glycoprotein; set-up: method as in PMID 25547867; settings: cited from earlier work
[9] = Plasma exposure after single oral administration in nude mice; format: in vivo; settings: mouse, single oral 50 mg/kg, read-out: Plasma exposure (AUC0–24 h)
[10] = set-up: method as in PMID 25434923; settings: human, cited from earlier work
[11] = Quantitative MALDI-IMS of drug in brain metastases of the breast cancer IVM (BR2, BR3); format: in vivo, mice; settings: for concentration at 4 h / concentration at 8 h: female, BALB/cAJcl-nu/nu, mouse, tumor (brain metastasis) in brain sections, po, 50 mg/kg, IMS; for concentration at 4 h: 4 h after single oral 50 mg/kg; for concentration at 8 h: 8 h after single oral 50 mg/kg
Protocol: BTB integrity in the IVM was assessed by measuring the fluorescence intensity of Texas-Red® dextran in the metastatic regions or brain parenchyma. Metastatic regions were defined as cancer cell clusters with DAPI staining in the same brain section (Fig. 2E and Supplementary Fig. S2C).
as §1
In the experimental brain metastasis of breast cancer or lung cancer (IVM), a cell suspension containing 2.0 × 10^6 cells (BR2), 1.7 × 10^6 cells (BR3), or 4.0 × 10^5 cells (NCI-H1975-luc) was implanted into the left ventricle of anaesthetized mice (Supplementary Fig. S1). In the intracranial implantation mice model, the cell suspension containing 3.1 × 10^5 cells was implanted into the craniotomy region (2 mm to the left of the bregma and 1 mm anterior to the coronal suture). For measurement of bioluminescence, 0.2 mL of 10 mg/mL luciferin solution was injected intravenously into anesthetized mice via the tail vein and the photons emitted from tumor measured by IVIS Imaging System 200 (Caliper Life Sciences).
Frozen brain tissues were cut into 10-µm sections using a cryostat (Leica CM3050 S; Leica Microsystems Inc., Wetzlar, Germany) at −20 °C. Sections were thaw-mounted onto glass microscope slides (Superfrost; Thermo Fisher Scientific Inc.) and stored at −80 °C until use. […] Standard solutions were spotted onto the glass microscope slides at 1 µL.
Matrix-coated sections were analyzed using a linear ion trap mass spectrometer with a MALDI source (MALDI LTQ XL, Thermo Fisher Scientific Inc.) and a nitrogen laser (337 nm; 60 Hz). Laser energy and raster step size were set at 30 µJ and 100 µm, respectively. All compounds were detected in positive-ion mode using the product ion scans of their [M + H]^+ ions. […] Heme B was detected by MS3 (m/z 616 → 557 → 498) as a blood biomarker.
Spectral data were acquired using Xcalibur 2.0.7 software (Thermo Fisher Scientific Inc.) and the localization and concentration of all compounds in the brain sections were analyzed using Quantinetix 1.7.10 software (ImaBiotech, Loos, France). The fluorescence intensity of Texas-Red® dextran and immunostaining intensity of HER2 were analyzed using a BZ-X analyzer (Keyence). Statistical analyses were performed using SAS software (version 9.4).

EGFR [12] = tested on: EGFR; set-up: method as in PMID 24837299; settings: cited from earlier work
HER2 [13] = tested on: HER2; set-up: method as in PMID 24837299; settings: cited from earlier work
[14] = tested on: patients with solid tumors; set-up: method as in PMID 25434923, PMID 25434923, PMID 25434923; settings: phase I trials; cited from earlier work
P-glycoprotein (P-gp) = biological target: T1, P-glycoprotein (P-gp) (Homo sapiens, UniProt P08183); assay: P-gp substrate assessment; format: in vitro ADME; settings: from permeability and efflux ratio across Caco-2 cell monolayers
T1 construct: permeability and efflux ratio of epertinib across Caco-2 cell monolayers; endogenous in cells; host or cells: Caco-2

[15] = BALB/cAJcl-nu/nu nude, brain, 20 mg/kg
[16] = BALB/cAJcl-nu/nu, brain, 20 mg/kg
[17] = BALB/cAJcl-nu/nu, plasma, 20 mg/kg

T1 sequence (P08183 whole entry): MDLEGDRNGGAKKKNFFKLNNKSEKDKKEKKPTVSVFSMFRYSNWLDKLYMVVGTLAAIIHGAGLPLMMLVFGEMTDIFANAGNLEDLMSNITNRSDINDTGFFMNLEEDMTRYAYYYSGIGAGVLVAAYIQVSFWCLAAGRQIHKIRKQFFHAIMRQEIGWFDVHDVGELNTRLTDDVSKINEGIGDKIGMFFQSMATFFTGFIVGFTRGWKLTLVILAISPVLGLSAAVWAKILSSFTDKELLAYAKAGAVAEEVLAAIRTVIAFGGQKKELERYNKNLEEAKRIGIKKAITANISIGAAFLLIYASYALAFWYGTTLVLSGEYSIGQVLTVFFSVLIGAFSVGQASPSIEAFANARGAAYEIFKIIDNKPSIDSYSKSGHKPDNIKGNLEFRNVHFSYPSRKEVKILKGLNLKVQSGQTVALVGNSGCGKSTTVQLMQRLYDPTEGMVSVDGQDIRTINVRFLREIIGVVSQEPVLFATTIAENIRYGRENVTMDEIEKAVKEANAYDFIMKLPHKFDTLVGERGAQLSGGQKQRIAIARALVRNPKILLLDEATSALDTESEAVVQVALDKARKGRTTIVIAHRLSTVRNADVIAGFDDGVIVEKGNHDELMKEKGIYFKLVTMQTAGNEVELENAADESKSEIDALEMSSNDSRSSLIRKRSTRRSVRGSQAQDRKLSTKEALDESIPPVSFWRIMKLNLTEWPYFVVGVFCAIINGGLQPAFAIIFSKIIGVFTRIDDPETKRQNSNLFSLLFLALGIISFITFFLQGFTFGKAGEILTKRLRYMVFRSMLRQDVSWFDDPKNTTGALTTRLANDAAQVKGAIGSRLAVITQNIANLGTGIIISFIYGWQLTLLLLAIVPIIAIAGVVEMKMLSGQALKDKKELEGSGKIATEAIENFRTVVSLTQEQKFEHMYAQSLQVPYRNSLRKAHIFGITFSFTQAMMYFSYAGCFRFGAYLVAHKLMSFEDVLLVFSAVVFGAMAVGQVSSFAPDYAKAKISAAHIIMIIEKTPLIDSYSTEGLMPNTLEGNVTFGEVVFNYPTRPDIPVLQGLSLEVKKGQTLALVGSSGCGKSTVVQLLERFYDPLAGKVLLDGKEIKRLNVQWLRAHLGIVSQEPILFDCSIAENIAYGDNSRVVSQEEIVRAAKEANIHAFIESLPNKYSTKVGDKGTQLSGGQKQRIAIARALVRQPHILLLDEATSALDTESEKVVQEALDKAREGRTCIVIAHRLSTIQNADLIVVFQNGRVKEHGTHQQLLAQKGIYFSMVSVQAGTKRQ

Row | SMILES | concentration at 4 h [1] [ng/g] | concentration at 4 h ([2]; BR2 IVM) [ng/mL] | concentration at 4 h ([2]; BR3 IVM) [ng/mL] | concentration at 8 h ([2]; BR3 IVM) [ng/mL] | Inhibitory activity on HER2 phosphorylation at 24 h (HER2 [3]) | concentration at 8 h [4, 15] [ng/g] | Tmax [4, 16] [h] | concentration at 0.5 h [4, 16] [ng/g] | concentration at 1 h [4, 16] [ng/g] | concentration at 2 h [4, 16] [ng/g] | concentration at 4 h [4, 16] [ng/g] | concentration at 24 h [4, 16] [ng/g] | AUC(0-t) [4, 17] [ng·h/mL] | Cmax [4, 17] [ng/mL] | Tmax [4, 17] [h] | concentration at 1 h [4, 17] [ng/mL] | concentration at 2 h [4, 17] [ng/mL] | concentration at 4 h [4, 17] [ng/mL] | concentration at 8 h [4, 17] [ng/mL] | concentration at 24 h [4, 17] [ng/mL] | other results
1 | CS(=O)(=O)CCNCc1ccc(-c2ccc3ncnc(Nc4ccc(OCc5cccc(F)c5)c(Cl)c4)c3c2)o1 [Lapatinib, N-{3-chloro-4-[(3-fluorobenzyl)oxy]phenyl}-6-[5-({[2-(methylsulfonyl)ethyl]amino}methyl)-2-furyl]-4-quinazolinamine, reference compound] | 7080 | 6690 ± 1310 | 2140 ± 220 | 630 | largely disappeared | 5.8 | 4 | 11.8 | 15.7 | 10 | 17 | 0.4 | 4110 | 985 | 0.5 | 763 | 413 | 461 | 99.6 | 5.4 | concentration at 0.5 h [4, 17]: 984 ng/mL; AUC0–24 h, brain [4]: 144 ng·h/g; Cmax, brain [4]: 17 ng/g; Inhibitory activity on EGFR phosphorylation at 24 h (EGFR [5]): largely disappeared; concentration at 4 h [6]: 9360 ± 1780 ng/mL; Objective response rate (ORR) [7]: 10.3%; Binding to albumin and α-1 acid glycoprotein [8]: > 99.9%; AUC(0-t) [9]: 34100 ng·h/mL; Plasma exposure (AUC0–24 h) ([10]; effective dose 1250 mg/day): 27300 ng·h/mL; concentration at 4 h ([11]; BR2 IVM): 160 ng/g; concentration at 4 h ([11]; BR3 IVM): 200 ng/g; concentration at 8 h ([11]; BR3 IVM): 190 ng/g
2 | CC#CC(=NOCC1COCCN1)c1ccc2ncnc(Nc3ccc(OCc4cccc(F)c4)c(Cl)c3)c2c1 (stereo not drawn) [Epertinib] | 6700 | 1440 ± 50 | 1300 ± 120 | 920 ± 300 | persisted at 24 h | 23.8 | 4 | 10.2 | 12.8 | 23 | 36.3 | 1.7 | 1260 | 145 | 2 | 113 | 145 | 115 | 54.7 | 2.1 | Off-rate of dissociation compared with lapatinib (EGFR [12]): slower off-rate of dissociation; Off-rate of dissociation compared with lapatinib (HER2 [13]): slower off-rate of dissociation; Tolerability [14]: well tolerated; Brain concentration of epertinib relative to that of lapatinib ([4]; 4 h after oral administration, 20 mg/kg): approximately twice; concentration at 0.5 h ([4]; BALB/cAJcl-nu/nu, in vivo, 20 mg/kg): 99.8 ng/mL; AUC0–24 h, brain [4]: 409 ng·h/g; Cmax, brain [4]: 36 ng/g; Inhibitory activity on EGFR phosphorylation at 24 h (EGFR [5]): persisted at 24 h; concentration at 4 h [6]: 2760 ± 660 ng/mL; AUC(0-t) [9]: 9980 ng·h/mL; Plasma exposure (AUC0–24 h) ([10]; effective dose 800 mg/day): 9170 ng·h/mL; Concentration measured in brain metastases of the IVM with breast cancer ([11]; breast cancer IVM): 5.2 µM; Tumor concentration of epertinib relative to that of lapatinib ([11]; breast cancer IVMs, 4 h after administration): > 10 times; concentration at 4 h ([11]; BR2 IVM): 2930 ng/g; concentration at 4 h ([11]; BR3 IVM): 2700 ng/g; concentration at 8 h ([11]; BR3 IVM): 2710 ng/g; P-gp substrate (P-glycoprotein (P-gp)): not a substrate
